From patent US20030166561A1, “Peptide” (priority 1999, published 2003) come the findings set out here.

Where no end group is shown, it is not given here.

One assay has as its system βTC6-F7 cells. Nature of the assay: Effect of preptin on glucose-stimulated insulin secretion from cultured βTC6-F7 cells. The class given is cell-based, murine. The conditions noted are these: 10 mM glucose. The method, then:
Insulin and amylin are known to modulate β-cell insulin secretion via presumed autocrine mechanisms. The effect of preptin on insulin secretion was therefore tested using a β-cell secretagogue protocol βTC6-F7 cells were subcultured at passage #52 into 24-well plates at 4×10^5 cells/well. They were grown for 3d in nDMEM to 80% confluence, then washed twice with KRB-HEPES. Stock preptin was serially diluted in incubation medium containing 10 mM D(+) glucose to yield final concentrations of 150, 75, 25, 5, 1 and 0.1 nM. Cells were then washed, and 1 ml/well of incubation medium containing 10 mM and-various final preptin concentrations was added to each well. Cells were incubated at 37° C. for 2 h, then medium removed. Cells were washed thrice with PBS, then lysed with 500 μl of lysis buffer. Incubation medium was centrifuged (16,000×g, 3 min) and the supernatant separated from pelleted debris. Incubation medium and lysates were then analyzed for insulin, preptin and protein as above.

Assay [1] concerns isolated perfused rat pancreas. Nature of the assay: Insulin secretion from glucose-stimulated isolated-perfused rat pancreas (infusion of preptin or anti-preptin γ-globulin). To be noted: 75 nM preptin, 20 mM glucose; compared with control (0-added preptin); p=0.03. The method, then: Pancreases from fasted adult male Wistar rats (300±25 g) were isolated and prepared (Grodsky and Fanska 1975). Pancreases were perfused with KHB supplemented with 4% dextran, 0.5% BSA, 3 mM arginine and 5.5 mM glucose. Perfusate was gassed with 95% 02:5% CO2 and infused by peristaltic pump (2.7 ml.min^−1 without re-circulation). Pancreases were perfused and equilibrated for 20 min prior to each 70 min perfusion experiment. 10 min into the experiment either carrier buffer (0.1% BSA in 0.9% NaCl), preptin dissolved in carrier buffer, anti-preptin Ig or non-immunised rabbit Ig (both diluted in carrier buffer) were introduced via a side-arm infusion (final concentrations in perfusate: 75 nM preptin; 35 μg.ml^−1 Ig). In addition, at 25 min, glucose was infused for 20 min (final concentration in perfusate: 20 mM). […]
Pancreases were perfused with KHB supplemented with 4% dextran, 0.5% BSA, 3 mM-arginine and 5.5 mM glucose (final concentrations). […] 10-min into the experiment either anti-preptin γ-globulin or non-immune rabbit γ-globulin were introduced via a side-arm infusion (final γ-globulin concentration in perfusate: 35 μg.ml^−1 in carrier buffer (0.1% BSA in 0.9% NaCl). In addition, at 25-min, glucose was infused for 20-min (measured final concentration in perfusate: 20 mM). Continuous 1-min fractions were collected on ice and assayed for insulin (RIA).

For the sequence “DVSTSQAVLPDDFPRYPVGKFFKFDTWRQSAGRL [synthetic rat preptin, 34 amino acid peptide, Asp69-Leu102 of rat proIGF-II E-peptide, chemically synthesized using Fmoc chemistry]”, in the assay with βTC6-F7 cells, the “preptin concentration at which effect on insulin secretion reached maximal” value is listed as 75 nM. Besides, in the assay with βTC6-F7 cells (2 h, 37° C., compared to controls (0 added preptin)), the “glucose-stimulated secretion of insulin” value was “enhanced”. Also, the “preptin concentration at which significant effects on insulin secretion were detected” value with βTC6-F7 cells (compared to controls (0 added preptin)) was no less than 0.1 nM. For the same sequence, the “enhancement of second phase of insulin secretion (areas-under-curve)” value in assay [1] is listed as 30%.
